Assay results taken from patent US7592330B2, “Methods and compositions for preserving the viability of photoreceptor cells” (Massachusetts Eye and Ear Infirmary, priority 2005, dated 2009).

How the values were obtained:
photoreceptor cells [1] = format: in vivo, Brown Norway rats
Experimental: Methods. Retinal detachments were created in the eyes of Brown Norway rats by injecting 10% hyaluronic acid into the subretinal space using a transvitreal approach. FK506 (tacrolimus) (5 mg/kg/day) diluted in PBS was administered by gastric gavage one day prior to the induction of retinal detachment, on the day of the induction, and for the two following days (n=6). Control animals received the same volume of PBS (0.5 cc) by gastric gavage one day prior to the induction of retinal detachment, on the day of the induction, and for the two following days (n=3). […] All eyes were enucleated 72 hours after retinal detachment induction and embedded in paraffin. Fourteen micrometer sections were subsequently obtained. DNA fragmentation was examined using terminal dUTP-biotin nick end-labeling (TUNEL). A masked observer counted TUNEL-positive cells and obtained an average from three adjacent standardized fields in two serial sections.

[2] = system: calpain-mediated cleavage of calcineurin; experiment: ALLM treatment in experimental retinal detachment, Western blot of calcineurin cleavage (Example 4, Experiment #2); format: in vivo, Brown Norway rats
Description: The following experiments determine that calcineurin is cleaved after retinal detachment and that pharmacologic inhibition of calpain will prevent this activation. In particular, retinas of rats with experimental retinal detachment will be examined for biochemical evidence of calcineurin activation. These experiments also determine that calcineurin cleavage is mediated by the calcium-dependent enzyme, calpain. […] Finally, they determine that calcineurin inhibitors like FK506 have a neuroprotective effect on photoreceptor cells death.
One day prior to surgical induction, animals are started on a treatment of ALLM (20 mg/kg/day, intraperitoneal administration), a calpain inhibitor, or vehicle control, and administration continues throughout the study. For this experiment, the animals are followed for three or five days after retinal detachment. At the end of this period, animals are sacrificed and their eyes are removed for either protein isolation or immunohistochemistry. Fellow eyes are used as controls. Western blot analysis is used to determine levels of retinal calcineurin and calcineurin cleavage products. Six animals per group are used.
Retinal Detachment Model. […]

caspase 1 = biological target: T1, caspase 1 (Homo sapiens, UniProt P29466); settings: cited from earlier work
T1 sequence (P29466 120-297 limits assumed): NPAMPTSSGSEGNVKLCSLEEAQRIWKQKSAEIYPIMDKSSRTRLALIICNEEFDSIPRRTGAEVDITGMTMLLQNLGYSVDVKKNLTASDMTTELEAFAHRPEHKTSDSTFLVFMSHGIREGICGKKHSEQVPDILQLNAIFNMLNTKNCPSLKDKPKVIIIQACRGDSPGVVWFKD
T1 sequence (P29466 317-404 limits assumed): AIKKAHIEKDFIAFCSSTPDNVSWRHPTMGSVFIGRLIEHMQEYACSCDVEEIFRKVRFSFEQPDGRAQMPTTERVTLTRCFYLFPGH

caspase 4 = biological target: T2, caspase 4 (Homo sapiens, UniProt P49662); settings: cited from earlier work
T2 sequence (P49662 81-270 limits assumed): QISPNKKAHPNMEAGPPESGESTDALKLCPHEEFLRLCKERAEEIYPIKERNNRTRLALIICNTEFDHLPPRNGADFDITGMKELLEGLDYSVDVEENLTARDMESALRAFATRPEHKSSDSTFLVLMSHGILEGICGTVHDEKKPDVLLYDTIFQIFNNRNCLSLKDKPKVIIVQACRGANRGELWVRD
T2 sequence (P49662 290-377 limits assumed): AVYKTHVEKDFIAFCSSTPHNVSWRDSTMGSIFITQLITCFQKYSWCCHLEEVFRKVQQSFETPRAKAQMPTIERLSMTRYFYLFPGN

caspase 3 = biological target: T3, caspase 3 (Homo sapiens, UniProt P42574); settings: cited from earlier work
T3 sequence (P42574 29-175 limits assumed): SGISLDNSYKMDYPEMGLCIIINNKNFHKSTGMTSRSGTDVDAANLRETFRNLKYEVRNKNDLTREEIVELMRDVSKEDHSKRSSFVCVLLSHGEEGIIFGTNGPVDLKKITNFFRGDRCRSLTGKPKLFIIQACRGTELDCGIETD
T3 sequence (P42574 176-277 limits assumed): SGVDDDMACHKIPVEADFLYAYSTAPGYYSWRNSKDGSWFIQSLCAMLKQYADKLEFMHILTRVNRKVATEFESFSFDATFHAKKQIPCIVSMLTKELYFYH

caspase 7 = biological target: T4, caspase 7 (Homo sapiens, UniProt P55210); settings: cited from earlier work
T4 sequence (P55210 24-198 limits assumed): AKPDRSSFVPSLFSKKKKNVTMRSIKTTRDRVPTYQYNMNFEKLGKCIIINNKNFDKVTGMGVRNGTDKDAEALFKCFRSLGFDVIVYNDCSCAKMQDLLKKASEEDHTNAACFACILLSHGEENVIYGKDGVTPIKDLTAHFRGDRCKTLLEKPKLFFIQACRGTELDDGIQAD
T4 sequence (P55210 207-303 limits assumed): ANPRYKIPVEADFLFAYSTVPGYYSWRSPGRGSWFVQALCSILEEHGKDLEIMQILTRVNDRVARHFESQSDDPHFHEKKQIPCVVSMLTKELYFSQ

photoreceptor cells [3] = experiment: Caspase inhibitor injected into region of retinal detachment, TUNEL staining (Example 2); format: in vivo, Brown-Norway rats; settings: 25 μl of 0.2, 2 or 20 mM inhibitor in DMSO into region of detachment; 72 hours; relative to untreated eyes
Experimental: The caspase inhibitor, Z-Val-Ala-Asp-fluoromethylketone is dissolved in dimethyl sulfoxide (DMSO) to give the final concentrations of 0.2 mM, 2 mM, and 20 mM. After creating the retinotomy with the subretinal injector, a small amount of Healon® sodium hyaluronate is injected in the subretinal space so as to elevate the retina. After retinal elevation, a Hamilton syringe with a 33 gauge needle is introduced through the retinotomy site, and 25 μl of inhibitor is injected into the region of detachment. About 25 minutes later, Healon® sodium hyaluronate is injected, via the same retinotomy site, to maintain the retinal detachment. Healon® sodium hyaluronate is injected until resistance is detected.
Only the right eyes of rats are used in evaluating the role of the Z-VAD-FMK inhibitor. The left eyes serve as the controls. Five animals are used for each concentration of inhibitor (namely, no inhibitor, 0.2 mM inhibitor, 2 mM inhibitor, and 20 mM inhibitor). For the no inhibitor control, 25 μl of DMSO is injected into the region of detachment followed by Healon® sodium hyaluronate.
After 72 hours, the eyes are enucleated and the rats euthanized. The enucleated eyes are paraffin embedded as described in Example 1. Then, 6 μm sections from the posterior segments are analyzed by TUNEL staining as described in Example 1.

C=CC[C@@H]1/C=C(\C)C[C@H](C)C[C@H](OC)[C@H]2O[C@@](O)(C(=O)C(=O)N3CCCC[C@H]3C(=O)O[C@H](/C(C)=C/[C@@H]3CC[C@@H](O)[C@H](OC)C3)[C@H](C)[C@@H](O)CC1=O)[C@H](C)C[C@@H]2OC [FK506, FK506 (tacrolimus)]
TUNEL-positive cells (mean±SD) (photoreceptor cells [1]; FK506 5 mg/kg/day by gastric gavage, from one day prior to detachment, eyes enucleated 72 hours after retinal detachment, n=6): 130.13±54.3
morphological signs of toxicity in the eyes (photoreceptor cells [1]; rat, in vivo, 5 mg/kg/day): no morphological signs of toxicity
reduction in the mean number of TUNEL-positive cells (photoreceptor cells [1]; treated group vs PBS control, 72 hours after detachment, p<0.05): 35%

Ac-Leu-Leu-Met-H (aldehyde) [ALLM]
levels of retinal calcineurin and calcineurin cleavage products ([2]; ALLM 20 mg/kg/day intraperitoneal, three or five days after retinal detachment): inhibition of the calpain-mediated cleavage pathway
photoreceptor cell death ([2]; treatment with ALLM in experimental retinal detachment): protect photoreceptor cells from death

Ac-Tyr-Val-Ala-Asp-aldehyde (SEQ ID NO: 7)
Ki (caspase 1): 10 nM
Ki (caspase 4): 10 nM
Ki (caspase 3): ≥ 50000 nM
Ki (caspase 7): ≥ 50000 nM

Z-Val-Ala-Asp-fluoromethylketone
TUNEL-positive photoreceptor cells in the region of retinal detachment (photoreceptor cells [3]): fewer photoreceptor cells in the region of retinal detachment that stain TUNEL-positive
inhibition of caspase 1 (caspase 1): inhibits
inhibition of caspase 4 (caspase 4): inhibits
inhibition of caspase 3 (caspase 3): inhibits
inhibition of caspase 7 (caspase 7): inhibits
